“And” between values parts separate entries of the source, which are not always exact repeats. Equal values may be shown once. Read-outs that look alike come from different tables or passages of the source.
Experiments:
[1] = system: taxol-resistant MCF7 cells (MCF7/Tax); assay: Growth inhibition of taxol-resistant cells; assay type: cell-based, human
MCF-7 cells = assay: Cell cycle analysis, flow cytometry with PI staining; assay type: cell-based, human; conditions: for G2/M cells: 24 h; for G0/G1, single runs / G0/G1 AVERAGE / G2/M, single runs / S AVERAGE / S, single runs / G2/M AVERAGE: flowjo raw data
Protocol: It is known that tubulin inhibitors block the cell cycle in the G2/M phase because of microtubule depolymerization and cytoskeleton disruption. Therefore, the effects of 7m on cell cycle progression of MCF-7 cells were analyzed by flow cytometry with PI staining. MCF-7 cells were treated with different concentrations (0, 100, 200, and 400 nM) of compound 7m for 24 h and 200 nM 7m at different times (0, 6, 12, and 24 h), respectively. […] When the concentration was increased to 200 and 400 nM, cells of 47% and 56% G2/M phase arrest were observed, respectively. Similarly, this phenomenon occurred after treatment with 200 nM 7m from 0 to 24 h.
MCF-7 cells were seeded into six-well plates (5 × 10^5 cells/well) and incubated at 37°C in a humidified 5% CO2 incubator for 24 h, and then treated with or without compound 7m at indicated concentrations (100, 200, 400 nM). The collected cells were fixed by adding 70% of ethanol at −20°C for 12 h. The cells were then washed with PBS, incubated with […] of RNase at 37°C for 30 min, and stained with […] of propidium iodide for 15 min, and finally subjected to flow cytometry.

[2] = system: microtubule network in MCF-7 cells; assay: Immunofluorescent staining of microtubule network; assay type: cell-based, human; conditions: 0.4 μM, 24 h
Protocol: Microtubule dynamics play an essential role in cancer cell growth. To examine whether compound 7m is able to disrupt microtubule dynamics, an immunofluorescent assay was carried out in MCF-7 cells.
Then the cells were washed with PBS three times. After permeabilization with 0.25% Triton X-100 for 5 min, the cells were washed with PBS three times and blocked in 5% bovine serum albumin (BSA) for 40 min. The cells were incubated with rabbit anti-α-tubulin primary antibody containing 5% BSA at room temperature for 5–6 h and washed with PBS three times. Cells were finally visualized under a fluorescence microscope.

[3] = system: MCF-7 cells implanted in zebrafish embryos; assay: Zebrafish xenograft assay; assay type: in vivo; conditions: 2.5, 5, 7.5 μΜ, 72 h
Protocol: To examine the in vivo anti-tumor and anti-metastasis potency of 7m, we implanted Cell-Tracker Red CMTPX-labeled MCF-7 cells into the yolk of Tg (flk: EGFP) 48 hpf embryos, and different concentrations of 7m (2.5, 5, 7.5 μΜ) were added. The intensity of the red fluorescence is proportional to the size of the xenograft tumor. After 72 h, the effects of 7m on the tumor mass development and cancer cell metastasis were assessed by fluorescence microscopy. […] Without drug treatment, MCF-7 cells disseminated and migrated widely away from the original area, and some tumor cells even migrated into the blood vessels of the zebrafish tail at 72 hpf.
The tumor cells MCF-7 were labeled with Red CMTPX, and then the labeled tumor cells were digested and resuspended. A hundred labeled tumor cells per 1 nl were injected into the zebrafish embryos developed for 48 h. The zebrafish injected with tumor cells were incubated in an incubator at 28.5°C for about 1 h under the action of different concentrations of 7m and then were transferred to an incubator at 35°C.

Substance: 3-(benzofuran-6-yl)-2-methyl-1-(3,4,5-trimethoxyphenyl)prop-2-en-1-one [Compound 7m]
- Resistant fold ([1]; (IC50 MCF7/Tax)/(IC50 MCF7)): 1.2
- IC50 ([1]; three single determinations, read-out: MCF-7/Taxol (raw data of table 3, IC50)): 0.242 µM and 0.181 µM and 0.216 µM
- IC50 ([1]; triplicate, read-out: IC50 ± SD, MCF7/Tax): 0.213 ± 0.026 µM
- G2/M cells (MCF-7 cells; 100 nM): 26%
- G0/G1, single runs (MCF-7 cells; 100nM): 61.76 and 47.12
- G0/G1 AVERAGE (MCF-7 cells; 100nM): 54.44
- G2/M, single runs (MCF-7 cells; 100nM): 15.14 and 28.34
- S AVERAGE (MCF-7 cells; 100nM): 23.82
- S, single runs (MCF-7 cells; 100nM): 23.1 and 24.54
- G0/G1, single runs (MCF-7 cells; 200nM dose series): 40.1 and 25.72
- G0/G1 AVERAGE (MCF-7 cells; 200nM dose series): 32.91
- G2/M, single runs (MCF-7 cells; 200nM dose series): 40.78 and 56.03
- S AVERAGE (MCF-7 cells; 200nM dose series): 18.685
- S, single runs (MCF-7 cells; 200nM dose series): 19.12 and 18.25
- G0/G1, single runs (MCF-7 cells; 200nM, 6h): 55.81 and 61.73
- G0/G1 AVERAGE (MCF-7 cells; 200nM, 6h): 58.77
- G2/M AVERAGE (MCF-7 cells; 200nM, 6h): 29.28
- G2/M, single runs (MCF-7 cells; 200nM, 6h): 36.18 and 22.38
- S AVERAGE (MCF-7 cells; 200nM, 6h): 15.51
- G0/G1, single runs (MCF-7 cells; 200nM, 12h): 34.65 and 32.01
- G0/G1 AVERAGE (MCF-7 cells; 200nM, 12h): 33.33
- G2/M AVERAGE (MCF-7 cells; 200nM, 12h): 41.805
- G2/M, single runs (MCF-7 cells; 200nM, 12h): 44.73 and 38.88
- S AVERAGE (MCF-7 cells; 200nM, 12h): 25.405
- S, single runs (MCF-7 cells; 200nM, 12h): 23.93 and 26.88
- G2/M cells (MCF-7 cells; 200 nM, dose series (Fig 6A)): 47%
- G0/G1, single runs (MCF-7 cells; 200nM, 24h): 6.61 and 3.51
- G0/G1 AVERAGE (MCF-7 cells; 200nM, 24h): 5.06
- G2/M AVERAGE (MCF-7 cells; 200nM, 24h): 91.725
- G2/M, single runs (MCF-7 cells; 200nM, 24h): 93.1 and 90.35
- S AVERAGE (MCF-7 cells; 200nM, 24h): 5.79
- G0/G1, single runs (MCF-7 cells; 400nM): 16.1 and 15.39
- G0/G1 AVERAGE (MCF-7 cells; 400nM): 15.745
- G2/M AVERAGE (MCF-7 cells; 400nM): 67.3
- G2/M, single runs (MCF-7 cells; 400nM): 66.98 and 67.62
- S AVERAGE (MCF-7 cells; 400nM): 16.955
- S, single runs (MCF-7 cells; 400nM): 16.92 and 16.99
- effect on microtubule organization [2]: significant disruption of microtubule organization
- fluorescence intensity and tumor size of MCF-7 cells vs vehicle [3]: reduced the fluorescence intensity and tumor size
- migration number of implanted MCF-7 cells [3]: notably reduced in a dose-dependent manner

— PMC8652888, “Angiogenesis, Anti-Tumor, and Anti-Metastatic Activity of Novel α-Substituted Hetero-Aromatic Chalcone Hybrids as Inhibitors of Microtubule Polymerization” (Frontiers in Chemistry, 2021)
